Test results taken from paper PMC3293897, “Diphenyl Urea Derivatives as Inhibitors of Transketolase: A Structure-Based Virtual Screening” (PLoS ONE, 2012).
Where two headings read alike, the source gives them in different places.

Tests used:
[1] = biological target: T1, Transketolase from cell extract (Homo sapiens, UniProt P29401); assay: Transketolase activity in cell extract (enzyme-linked NADH oxidation, spectrophotometric/fluorimetric); assay type: biochemical; details: for inhibitory activity class (Figure 2): Figure 2 grouping
T1 construct: approximately 300 µg of protein cell extract used for the determination of transketolase enzyme activity; endogenous in cells; host or cells: Cultured cells
T1 sequence (P29401 1-623): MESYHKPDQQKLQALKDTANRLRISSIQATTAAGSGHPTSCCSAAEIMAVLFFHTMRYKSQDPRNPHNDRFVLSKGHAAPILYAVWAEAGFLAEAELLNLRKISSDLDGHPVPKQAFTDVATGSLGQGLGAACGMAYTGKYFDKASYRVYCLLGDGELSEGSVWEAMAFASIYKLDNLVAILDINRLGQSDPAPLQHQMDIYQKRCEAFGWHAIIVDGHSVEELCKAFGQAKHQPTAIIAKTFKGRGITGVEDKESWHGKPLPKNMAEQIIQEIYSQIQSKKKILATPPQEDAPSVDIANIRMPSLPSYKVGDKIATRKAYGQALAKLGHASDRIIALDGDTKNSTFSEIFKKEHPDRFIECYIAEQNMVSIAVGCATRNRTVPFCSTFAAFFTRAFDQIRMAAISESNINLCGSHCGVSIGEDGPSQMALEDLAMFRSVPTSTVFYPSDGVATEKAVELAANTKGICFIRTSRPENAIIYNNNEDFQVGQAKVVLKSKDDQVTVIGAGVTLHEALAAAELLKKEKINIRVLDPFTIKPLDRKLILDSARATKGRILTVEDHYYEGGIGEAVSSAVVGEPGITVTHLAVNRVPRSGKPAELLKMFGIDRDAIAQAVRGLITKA
Procedure: Cell cultures were washed with PBS, detached from the flasks using 0.025% trypsin-EDTA and then resuspended in lysis buffer (1 mM dithiothreitol, 1 mM EDTA, 0.02% Triton X-100, 0.02% sodium deoxycholate, 0.2 mM phenylmethylsulfonyl fluoride, 1% sodium azide and 20 mM Tris-HCl, pH 7.5). Cells were homogenized using a laboratory sonicator (1/2 Liter Branson 200 Ultrasonic bath, 5 min, 40 kHz, 4°C) and immediately ultracentrifuged at 105000×g for 1 hour at 4°C. The supernatant was separated and approximately 300 µg of protein cell extract used for the determination of transketolase enzyme activity using a Cobas Mira Plus chemistry analyzer (HORIBA ABX, Montpellier, France) or a spectrofluorimeter Kontron SFM-25 (Bio-Tek Instruments, VT, United States).
Transketolase (EC 2.2.1.1) activity was determined using the enzyme linked method described by Smeets and colleagues. Briefly, cell extract and inhibitors were added to a cuvette containing 5 mM MgCl2, 0.2 U×mL^−1 glycerophsphate dehydrogenase-triosephosphate isomerase (from rabbit muscle), 0.2 mM NADH, 0.1 mM thiamine pyrophosphate (TPP) and 50 mM Tris-HCl, pH 7.6 at 37°C. The reaction was initiated by the addition of 300 µL substrate mixture (see below) per mL of cuvette volume. The oxidation of NADH, which is directly proportional to transketolase activity, was followed by the decrease in absorbance at 340 nm (spectrophotometric method) or in fluorescence at 450 nm when excited at 330 nm (fluorimetric method) before and after the addition of the different compounds tested. A blank with all the assay components but the sample was performed in each experiment by measuring the oxidation of NADH. The substrate mixture was prepared by dissolving 50 mM ribose-5-phosphate in 50 mM Tris-HCl, pH 7.6, and adding 0.05 IU ribulose-5-phosphate-3-epimerase (from baker's yeast) and 0.25 IU phosphoriboisomerase (from spinach). The substrate mixture was continuously stirred and heated for 1 hour at 37°C and then kept at −20°C until use.
Protein concentration of cell extracts was determined using the BCA Protein Assay (Pierce Biotechnology, Rockford, IL) to calculate the specific activity of the transketolase enzyme.

HT29 cells = assay: MTT cell viability assay, HT29; assay type: cell-based, human
Procedure: (§1) HCT116 human colon carcinoma cells (gift from Dr Capellà, Institut Català d'Oncologia, Barcelona, Spain) were grown in DMEM∶HAM F12 (1∶1), supplemented with 10% heat-inactivated foetal calf serum (FCS) (PAA Laboratories, Pasching, Austria), L-glutamine (2 mM), pyruvic acid (1 mM), non-essential aminoacids (1%) and antibiotics: 100 U×mL^−1 penicillin and 100 µg×mL^−1 streptomycin. HT29 human colon adenocarcinoma cells (obtained from the American Type Culture Collection -ATCC-) were grown in Dulbecco's Modified Eagle's Medium, 25 mM D-glucose, 4 mM L-glutamine supplemented with 10% heat-inactivated FCS, and antibiotics: 100 U×mL^−1 penicillin and 100 µg×mL^−1 streptomycin (Invitrogen, Paisley, UK). All cell cultures were carried out at 37°C in a humidified atmosphere with 5% CO2. Subconfluent monolayers of cells were used in all experiments.
(§2) Cell viability was determined using the MTT assay, which is based on the ability of live cells to cleave the tetrazolium ring, thus producing formazan, which absorbs at 570 nm. 5000 cells/well HT29 cells or 1700 cells/well HCT116 cells were seeded into 96-well plates and incubated for 24 h prior to the addition of the different compounds at different concentrations, in triplicate. After incubation for 72 h, the supernatant was aspirated and 100 µL of filtered MTT (0.5 mg/mL) was added to each well. Following 1 h of incubation, the supernatant was removed and the formazan precipitated was dissolved in DMSO. Relative cell viability was measured by absorbance at 550 nm on an ELISA plate reader (Tecan Sunrise MR20-301, TECAN, Austria). Concentrations that inhibited cell growth by 50% (IC50) after treatment were determined.

HCT116 cells = assay: MTT cell viability assay, HCT116; assay type: cell-based, human
Procedure: as §1, §2

[2] = Homo sapiens, HT-29, 72 h incubation, read-out: IC50 Cell viability (HT29 cells)
[3] = Homo sapiens, HCT-116, 72 h incubation, read-out: IC50 Cell viability (HCT116 cells)

Compound | IC50 [1] [µM] | inhibitory activity class (Figure 2) [1] | transketolase inhibition in the enzymatic assay (in words) ([1]; cell extract) | IC50 (HT29 cells; [2]) [µM] | IC50 (HCT116 cells; [3]) [µM] | IC50 (HT29 cells; 72 h incubation, read-out: IC50 cell viability (HT29)) [µM] | IC50 (HCT116 cells; 72 h incubation, read-out: IC50 cell viability (HCT116)) [µM] | IC50 ([1]; cell extract, compound concentration varied 50 to 300 µM, read-out: IC50 Transketolase from cell extract) [µM]
Cc1ncc(C[n+]2csc(CCO)c2C)c(=O)[nH]1 [oxythiamine, reference compound] | – | – | – | – | – | 8000 | 8000 | –
O=[N+]([O-])c1cccc(NC(=S)Nc2cc(Cl)ccc2O)c1 [T2E] | > 200 | Inactives | poorly active | 20 | 13 | – | – | –
CCc1ccc(NC(=O)Nc2cccc([N+](=O)[O-])c2)c(CC)c1 [T2D] | > 200 | Inactives | no inhibition of transketolase | > 200 | > 200 | – | – | –
O=C(Nc1ccccc1)Nc1cc(Cl)c([N+](=O)[O-])cc1O [T2B] | – | Actives | – | 6 | 12 | – | – | 100

The next lines start with results.

IC50 [1] [µM] | inhibitory activity class (Figure 2) [1] | transketolase inhibition in the enzymatic assay (in words) ([1]; cell extract) | IC50 (HT29 cells; [2]) [µM] | IC50 (HCT116 cells; [3]) [µM] | Compound | IC50 (HT29 cells; 72 h incubation, read-out: IC50 cell viability (HT29)) [µM] | IC50 (HCT116 cells; 72 h incubation, read-out: IC50 cell viability (HCT116)) [µM] | IC50 ([1]; cell extract, compound concentration varied 50 to 300 µM, read-out: IC50 Transketolase from cell extract) [µM]
> 200 | Inactives | no activity | – | – | Cc1c(Cl)cccc1NC(=O)Nc1cccc(O)c1 [T2F] | – | – | –
> 200 | Inactives | inactive | 200 | 200 | Cc1c(Cl)cccc1NC(=O)Nc1ccc(CC(=O)O)cc1 [T2C] | – | – | –
200 | Actives | – | 10 | 9 | Cc1c(Cl)cccc1NC(=O)Nc1cc([N+](=O)[O-])ccc1O [T2] | – | – | –
150 | Actives | – | 15 | 17 | Cc1ccc([N+](=O)[O-])cc1NC(=O)Nc1cccc2c(O)cccc12 [T2A] | – | – | –
